Measured values from PubChem BioAssay AID2305 (GlaxoSmithKline (GSK), 2010).
Several values for one entry are separate records, joined by “and”; a condition that tells them apart may be missing. Equal values may be shown once.

These molecules were tested on P. falciparum 3D7 growth, pLDH absorbance (assay: P. falciparum 3D7 growth inhibition, dose response, strain 3D7 (AID 2305)).

| Compound | IC50 |
| --- | --- |
| CC(C)CCNC(=O)C1Cc2c([nH]c3ccc(Br)cc23)C2(CCN(Cc3ccccc3)CC2)N1 (stereo not drawn) | 820 nM |
| OCC1CCN(Cc2ccc(-c3ccc(-c4nc5ccc(F)cc5[nH]4)s3)cc2)CC1 | 850 nM |
| CCN(CC)CCN(Cc1ccc(-c2ccc(C(F)(F)F)cc2)cc1)C(=O)Cn1c(CCc2cccc(F)c2F)c(C)c(=O)c2ccccc21 | 940 nM |
| CC[C@H]1CN2CC[C@H]1C[C@H]2[C@H](O)c1cc(-c2cccc(F)c2)nc2ccc(OC)cc12 | 60 nM |
| CCOC(=O)C1=C(C)N=c2sc(=Cc3ccccc3O)c(=O)n2C1c1ccc(OC)c2ccccc12 (stereo not drawn) | 1260 nM |
| CN(C)CCCN1CCN(Cc2ccc(-c3ccc(-c4nc5ccccc5[nH]4)s3)cc2)CC1 | 820 nM |
| COCCN1CCC(N(Cc2ccc(-c3ccc(OC(F)(F)F)cc3)cc2)C(=O)Cn2c(CCc3cccc(F)c3F)cc(=O)c3ccccc32)CC1 | 1210 nM |
| COc1ccc2nccc(NC(=O)CNCc3ccc(-c4ccccc4)cc3)c2c1 | 770 nM |
| CCOc1cccc2nc(NCCCNCc3ccc(Cl)c(Cl)c3)cc(NCCCNCc3ccc(Cl)c(Cl)c3)c12 | 570 nM |
| C#CCN1CCC2=C(C1)c1c(O)cc(C(C)CCCc3ccc(F)cc3)cc1OC2(C)C (stereo not drawn) | 730 nM |
| COc1ccc2nccc([C@@H](O)CN3CCC(NCc4ccc5c(c4)N(C)C(=O)CO5)CC3)c2c1 | 750 nM |
| Cc1cc(C)c(C)c(S(=O)(=O)N2CCCCC(c3ccc(F)c(F)c3)=N2)c1C | 710 nM |
| Nc1nc(N)c2c(Sc3ccc(F)cc3)cccc2n1 | 1070 nM |
| C[C@@H]([C@@H](CCCc1ccc(Cl)cc1)C(=O)N[C@H](C(=O)Nc1cccnc1)C(C)(C)C)N(O)C=O | 720 nM |
| N#Cc1ccc2nc(-c3cc(-c4cccc(F)c4)cnc3N)[nH]c2c1 | 190 nM |
| CCN(CC)CCN(Cc1ccc(-c2ccc(C(F)(F)F)cc2)cc1)C(=O)Cn1cc(Cc2cnn(C)c2)c(=O)n2nc(-c3ccccc3)cc12 | 730 nM |
| CC(C)CNC(=O)c1cncc(-c2cccc(CNC3Cc4ccccc4C3)c2)c1 | 790 nM |
| CC(Nc1cc(-c2ccccn2)nc(-c2ccccn2)n1)c1ccccc1 (stereo not drawn) | 450 nM |
| O=C(N[C@H]1CCCC[C@H]1C(=O)O)c1ccccc1 | 780 nM |
| COc1cc(F)c2nccc([C@@H](O)CN3CC[C@H](NCc4ccc5c(n4)NC(=O)CS5)[C@H](F)C3)c2c1 | 1170 nM |
| O=C1C(=Cc2cc(Cc3ccccc3)ccc2O)SC(=S)N1Cc1ccccc1 | 940 nM |
| COc1ccc(Nc2nccc(N3CCC(NC(=O)C(C)c4ccc(Cl)cc4)CC3)n2)cc1 (stereo not drawn) | 930 nM |
| O=C(Nc1ccc(F)cc1)NC1CCN(c2ccnc3cc(Cl)ccc23)CC1 | 410 nM |
| COc1ccc(S(=O)(=O)N(CCCN2CCN(C)CC2)Cc2csc(-c3ccc(CNCc4ccccc4)cc3)n2)cc1 | 950 nM |
| CCOC(=O)c1[nH]c(-c2ccccc2)nc1-n1nc(C)cc1C | 690 nM |

| Compound | IC50 |
| --- | --- |
| CCOc1cc(Cc2cnc(N)nc2N)cc(OCC)c1-n1cccc1 | 760 nM |
| CC(=O)Nc1ccc(Nc2c3ccccc3nc3ccccc23)cc1 | 1020 nM |
| CCCCN(Cc1cccc(C(F)(F)F)c1Cl)c1ccc(C(O)(C(F)(F)F)C(F)(F)F)cc1 | 960 nM |
| CCOc1c(N2CCN(CCCCNC(=O)c3ccc(NC(=O)c4ccc(Cl)cc4)cc3)CC2)ccc2ccccc12 | 680 nM |
| Nc1nc(N)c2c(Oc3cccc(Cl)c3)cccc2n1 | 470 nM |
| CCn1c2ccccc2c2cc(Cc3cnc(N)nc3N)ccc21 | 220 nM |
| Cc1ccc(NC(=O)C2CCC2)cc1-c1ccc(C(=O)NCC2CC2)cc1 | 740 nM |
| Cc1cc(C2CCN(CCCCNC(=O)c3ccc(NC(=O)c4ccc(Cl)cc4)cc3)CC2)c(C)cc1OCc1nccn1C | 830 nM |
| NC(=O)c1cccc(C(=O)Nc2ccc(-c3cccc(-c4nc5ccc(F)cc5[nH]4)c3)cc2)c1 | 870 nM |
| O=C(Nc1ccccc1O)c1ccc(S(=O)(=O)c2ccc(Cl)cc2)cc1 | 1350 nM |
| CCN(CCCN1CCCCC1)c1cc(C)nc(Nc2ccc(C)cc2Cl)n1 | 340 nM |
| CCCNC[C@@H](O)[C@H](Cc1ccccc1)NC(=O)c1cc(NCC)cc(N2CCCC2=O)c1 | 760 nM |
| O=C(O)c1ccc(-c2cnc3ccc(NC4CCC(O)CC4)nn23)cc1 (stereo not drawn) | 1000 nM |
| Cc1c(S(=O)(=O)Nc2ccc3ccn(CCN(C)C)c3c2)sc2ccc(Cl)cc12 | 920 nM |
| O=C(NCC1CCC1)c1cnc(Nc2cccc(Cl)c2)nc1N1CCC1 | 860 nM |
| CC(=O)c1ccccc1C(=O)N1CCOc2ccc(C(O)C(c3ccccc3)c3ccccc3)cc2C1 (stereo not drawn) | 900 nM |
| CC[C@H](C)CNC(=O)c1cncc(-c2ccc(CNCCCc3ccccc3)cc2)c1 | 730 nM |
| COc1ccc(-c2nc(-c3ccc([N+](=O)[O-])cc3)no2)cc1OC | 410 nM |
| Cc1[nH]c(C)c(-c2ccc(OCc3ccc(OC(F)(F)F)cc3)nc2)c(=O)c1Br | 140 nM |
| CCOc1ccc(C=CC(=O)Nc2ccc3nc(N4CCN(C)CC4)cc(C)c3c2)cc1OC | 400 nM |
| N#CCCN1CCN(Cc2cccc(-c3ccc(-c4nc5ccccc5[nH]4)s3)c2)CC1 | 760 nM |
| COc1ccc(CCNCCCCCCNCCc2ccc(OC)c(OC)c2Cl)c(Cl)c1OC | 900 nM |
| O=C(Nc1cc(C(F)(F)F)cc(C(F)(F)F)c1)Nc1ccc(Cl)c(Cl)c1 | 240 nM |
| O=c1ccc(CNc2nc(NCCc3ccccc3)nc3ccc(Cl)cc23)c[nH]1 | 780 nM |
| COC(=O)c1cccc(CNCc2ccc(-c3cccc(-c4nc5ccccc5[nH]4)c3)cc2)c1 | 260 nM |

| Compound | IC50 |
| --- | --- |
| Cc1ccc2nc(C)cc(NC(=O)Nc3ccc(N(C)C)cc3)c2c1 | 540 nM |
| COc1ccc(NS(=O)(=O)c2ccc(C(=O)Nc3ccc(C(F)(F)F)cc3)cc2)cc1N1CCN(CC2CC2)CC1 | 830 nM |
| CC(C)(C(=O)Nc1ccc(N2CCC3(CCCN(CC4CC4)C3)CC2)c(Cl)c1)c1cccc(C(F)(F)F)c1 | 2000 nM |
| N#Cc1c(Cl)cccc1Oc1ccc(S(=O)(=O)NC2CCC(CN3CCC(c4c[nH]c5ccccc45)CC3)CC2)cc1 (stereo not drawn) | 710 nM and 1070 nM |
| Cc1ccccc1Cc1cccc(/N=C(\N)Nc2ccc(Cl)cc2)n1 | 680 nM |
| CCOc1cc(NC(=O)Nc2ccnc3ccccc23)cc(OC)c1 | 870 nM |
| O=C(NCCCCN1CCC(c2nc3ccccc3s2)CC1)c1cc2ccccc2[nH]1 | 1020 nM |
| COc1ccccc1CN1CCC(NC(=O)c2ccc(-c3cccc(C(F)(F)F)c3)s2)CC1 | 1310 nM |
| Cc1cccc(CNc2nc(C)cc(N[C@@H](Cc3ccccc3)C(=O)NC3CCCC3)n2)c1 | 650 nM |
| Cc1[nH]c(C)c(-c2ccc(Oc3ccccc3)cc2)c(=O)c1Br | 50 nM |
| CCNc1cc(C)nc(Nc2ccccc2)n1 | 880 nM |
| CCN(CCCN1CCCCC1)c1cc(C)nc(Nc2ccc(F)c(C(F)(F)F)c2)n1 | 150 nM |
| N#Cc1ccc2c(c1)CCN(CCC1CCC(NC(=O)c3cc4cccc([N+](=O)[O-])c4[nH]3)CC1)C2 (stereo not drawn) | 680 nM |
| CCC(CC)(Cc1ccccc1)NC(=O)[C@H](Cc1ccc(OC)c(OC)c1)Nc1ccc(C#N)c2ccccc12 | 870 nM |
| CC(C)(C)C(=O)Nc1ccc(N2CCN(C(c3ccccc3)c3ccccc3)CC2)c(Cl)c1 | 660 nM |
| CC(C)CN1CCN(CCNc2c3ccccc3nc3ccccc23)CC1 | 820 nM |
| CC(C)Oc1cc2c(cc1NS(=O)(=O)c1ccc(-c3cccs3)cc1)CCN(C)CC2 | 960 nM |
| CN1CCc2cc(CN3C[C@]4(C)C[C@H]3CC(C)(C)C4)c(O)cc2C(c2ccccc2)C1 (stereo partly drawn) | 720 nM |
| COc1cc(C2NCC3(CCOCC3)c3cc4c(cc32)OCCO4)cc(OC)c1OC (stereo not drawn) | 170 nM |
| CN(C)CCNC(=O)c1cc2c(-c3ccc(Cl)cc3)nn(C)c2s1 | 670 nM |
| CC1(C)CN(CCC2CCC(NC(=O)/C=C/c3ccccc3F)CC2)Cc2ccc(C#N)cc21 (stereo not drawn) | 1110 nM |
| CCN1CCN(c2cc(C)c3cc(NC(=O)c4ccc(OC)c(OC)c4)ccc3n2)CC1 | 1030 nM |
| CN(CCN1CCCC1)c1nc2ccc(-n3cnc4cc(-c5ccc(Cl)cc5)sc4c3=O)cc2[nH]1 | 820 nM |
| Cc1nn(-c2ccc(Cl)cc2)c2[nH]c(CN3CCN(c4cccc(Cl)c4)CC3)cc(=O)c12 | 240 nM |
| O=C(NCCN1CCN(S(=O)(=O)c2ccc(OC3CCNCC3)c(Br)c2)CC1)c1ccc(Cl)c(Cl)c1 | 890 nM |

| Compound | IC50 |
| --- | --- |
| C=CCOC(=O)N1CCC(CNCc2ccc(-c3ccc(-c4nc5ccccc5[nH]4)s3)cc2)C1 (stereo not drawn) | 230 nM |
| C#CCCC(=O)Nc1cccc(-c2cccc(-c3nc4c(C)cccc4[nH]3)c2)c1 | 740 nM |
| COc1ccc(C(=O)CCC(=O)N(Cc2ccc(-c3ccc(CNCc4cccnc4)cn3)cc2)C2CCN(Cc3ccccc3)CC2)cc1F | 980 nM |
| Cc1cc(C)n(Cc2ccc(C(=O)NCC3CCCCC3)cc2)n1 | 960 nM |
| COc1ccc2nccc([C@@H](O)CN3CCC(NCc4ccc5c(c4)nnn5C(C)C)CC3)c2c1 | 640 nM |
| COc1cc(Nc2ncc3c(C)nc(-c4cc5ccccc5[nH]4)n3n2)cc(OC)c1OC | 1020 nM |
| O[C@H](c1cc(C(F)(F)F)nc2c(C(F)(F)F)cccc12)[C@@H]1CCCCN1 | 70 nM |
| Nc1ncc(-c2ccccc2)cc1/C=C/c1cccnc1 | 1120 nM |
| COc1ccc2nccc([C@@H](O)CN3CCC(NCc4cc5cccc(OCc6ccccc6)c5[nH]4)CC3)c2c1 | 900 nM |
| COc1cc(-c2cc3cc(Cl)c(Cl)cc3[nH]2)ccc1C(=O)NCCC1CCCN1C (stereo not drawn) | 970 nM |
| O=C(Nc1ccc(C(F)(F)F)cc1)Nc1ccccc1N1CCNCC1 | 500 nM |
| Cc1ccc2c(C3=CCN(CCCCC4(C)C(=O)Nc5c(F)cccc54)CC3)c(C)[nH]c2c1 (stereo not drawn) | 270 nM |
| Fc1ccccc1CNc1ncc(-c2ccsc2)c(-c2nccs2)n1 | 50 nM |
| Nc1nc(N)c2cc(Sc3ccc4ccccc4c3)ccc2n1 | 20 nM |
| CCOC(=O)c1ccc(-c2cnc(N)c(-c3nc4c(C)cccc4[nH]3)c2)cc1 | 280 nM |
| CC(=O)Nc1ccc(C(=O)Nc2cccc(-c3cccc(-c4nc5c(C)cccc5[nH]4)c3)c2)cn1 | 60 nM |
| COc1cc(F)c2ncc(F)c(CCN3C[C@H](CNCc4ccc5c(n4)NC(=O)CS5)[C@H](O)C3)c2c1 | 460 nM |
| O=C(Nc1ccc([N+](=O)[O-])cc1)Nc1cc(C(F)(F)F)ccc1F | 1070 nM |
| Cc1sc(N2CCCCC2)nc1C(=O)Nc1ccc(F)cc1C(F)(F)F | 1150 nM |
| CCN(CC)C(=O)c1cnc(-c2ccccc2)nc1Oc1cccc(Cl)c1 | 1160 nM |
| O=C(/C=C/c1ccc(Cl)c(Cl)c1)NCCCCCN1CCC(NC(=O)NCCc2ccccc2)CC1 | 720 nM |
| O=S(=O)(Nc1ccc2nccc(N3CCNCC3)c2c1)c1ccc(-c2ccccc2)cc1 | 980 nM |
| CCCCNCc1cc(Cl)c2ccccc2c1O | 460 nM |
